PubChem BioAssay (NCI)
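Interpolation was linear, between the two tested concentrations surrounding the appropriate level; five concentrations were tested over 48 hours in 96-well plates. GI50 = concentration required for 50% inhibition of growth. At the TGI there is no net growth.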

What was measured:
Experiment in all cases: NCI anticancer screen, dose series, 48 h
[1] = test system: 786-0 renal
[2] = test system: A498 renal
[3] = test system: A549 NSCLC
[4] = test system: ACHN renal
[5] = test system: BT-549 breast
[6] = test system: CAKI-1 renal
[7] = test system: CCRF-CEM leukemia
[8] = test system: COLO 205 colon
[9] = test system: DU-145 prostate
[10] = test system: EKVX NSCLC
[11] = test system: HCC-2998 colon
[12] = test system: HCT-116 colon
[13] = test system: HCT-15 colon
[14] = test system: HL-60(TB) leukemia
[15] = test system: HOP-62 NSCLC
[16] = test system: HOP-92 NSCLC
[17] = test system: HS 578T breast
[18] = test system: HT29 colon
[19] = test system: IGROV1 ovarian
[20] = test system: K-562 leukemia
[21] = test system: KM12 colon
[22] = test system: LOX IMVI melanoma
[23] = test system: M14 melanoma
[24] = test system: MALME-3M melanoma
[25] = test system: MCF7 breast
[26] = test system: MDA-MB-231 breast
[27] = test system: MDA-MB-435
[28] = test system: MDA-MB-468 breast
[29] = test system: MOLT-4 leukemia
[30] = test system: NCI-H226 lung
[31] = test system: NCI-H23 lung
[32] = test system: NCI-H460 lung
[33] = test system: NCI-H522 lung
[34] = test system: NCI/ADR-RES ovarian
[35] = test system: OVCAR-3 ovarian
[36] = test system: OVCAR-4 ovarian
[37] = test system: OVCAR-5 ovarian
[38] = test system: OVCAR-8 ovarian
[39] = test system: PC-3 prostate
[40] = test system: RPMI-8226 leukemia
[41] = test system: RXF 393 renal
[42] = test system: SF-268 CNS
[43] = test system: SF-295 CNS
[44] = test system: SF-539 CNS
[45] = test system: SK-MEL-2 melanoma
[46] = test system: SK-MEL-28 melanoma
[47] = test system: SK-MEL-5 melanoma
[48] = test system: SK-OV-3 ovarian
[49] = test system: SN12C renal
[50] = test system: SNB-19 CNS
[51] = test system: SNB-75 CNS
[52] = test system: SR leukemia
[53] = test system: SW-620 colon
[54] = test system: T-47D breast
[55] = test system: TK-10 renal
[56] = test system: U251 CNS
[57] = test system: UACC-257 melanoma
[58] = test system: UACC-62 melanoma
[59] = test system: UO-31 renal

Question: CCOC(=O)C(Cc1ccccc1)N1C(=O)/C(=C/N2N=C(c3ccc(OC)cc3)CC2c2ccc3ccccc3c2)SC1=S (stereo not drawn) was tested. Which GI50 [1] did it give?
Answer: Its GI50 is 5.31 µM.

Question: What about the TGI [1] of the same compound?
Answer: Its TGI is 27.9 µM.

Question: And the GI50 [2]?
Answer: The GI50 was 5.08 µM.

Question: What about the TGI [2] of the same compound?
Answer: The TGI was 19.5 µM.

Question: And the GI50 [3]?
Answer: The GI50 was 7.08 µM.

Question: What about the TGI [3] of the same compound?
Answer: The TGI was 27.3 µM.

Question: What about the GI50 [4] of the same compound?
Answer: The GI50 was 4.86 µM.

Question: What about the TGI [4] of the same compound?
Answer: The TGI was 21.7 µM.

Question: And the GI50 [5]?
Answer: Its GI50 is 5.79 µM.

Question: And the TGI [5]?
Answer: Its TGI is 19.8 µM.

Question: And the GI50 [6]?
Answer: Its GI50 is 3.76 µM.

Question: And the TGI [6]?
Answer: The TGI was 21.7 µM.

Question: And the GI50 [7]?
Answer: Its GI50 is 3.27 µM.

Question: And the TGI [7]?
Answer: The TGI was greater than 100 µM.

Question: What about the GI50 [8] of the same compound?
Answer: The GI50 was 3.09 µM.

Question: And the TGI [8]?
Answer: The TGI was 14.7 µM.

Question: And the GI50 [9]?
Answer: The GI50 was 11.2 µM.

Question: And the TGI [9]?
Answer: The TGI was 36.5 µM.

Question: What about the GI50 [10] of the same compound?
Answer: The GI50 was 2.46 µM.

Question: What about the TGI [10] of the same compound?
Answer: The TGI was 11.5 µM.

Question: What about the GI50 [11] of the same compound?
Answer: Its GI50 is 3.05 µM.

Question: And the TGI [11]?
Answer: The TGI was 10.2 µM.

Question: And the GI50 [12]?
Answer: The GI50 was 3.3 µM.

Question: And the TGI [12]?
Answer: The TGI was 17.4 µM.

Question: And the GI50 [13]?
Answer: Its GI50 is 2.6 µM.

Question: And the TGI [13]?
Answer: The TGI was 10.4 µM.

Question: And the GI50 [14]?
Answer: The GI50 was 3.54 µM.

Question: What about the TGI [14] of the same compound?
Answer: Its TGI is 16.5 µM.

Question: And the GI50 [15]?
Answer: The GI50 was 3.82 µM.

Question: What about the TGI [15] of the same compound?
Answer: Its TGI is 19.6 µM.

Question: And the GI50 [16]?
Answer: Its GI50 is 2.65 µM.

Question: What about the TGI [16] of the same compound?
Answer: The TGI was 12.1 µM.

Question: What about the GI50 [17] of the same compound?
Answer: The GI50 was 2.62 µM.

Question: What about the TGI [17] of the same compound?
Answer: The TGI was 16.6 µM.

Question: And the GI50 [18]?
Answer: The GI50 was 3.29 µM.

Question: What about the TGI [18] of the same compound?
Answer: Its TGI is 13.5 µM.

Question: What about the GI50 [19] of the same compound?
Answer: The GI50 was 4.09 µM.

Question: What about the TGI [19] of the same compound?
Answer: The TGI was 15.6 µM.

Question: What about the GI50 [20] of the same compound?
Answer: The GI50 was 3.69 µM.

Question: What about the TGI [20] of the same compound?
Answer: Its TGI is greater than 100 µM.

Question: What about the GI50 [21] of the same compound?
Answer: The GI50 was 3.54 µM.

Question: And the TGI [21]?
Answer: Its TGI is 13.3 µM.

Question: What about the GI50 [22] of the same compound?
Answer: The GI50 was 2.8 µM.

Question: What about the TGI [22] of the same compound?
Answer: The TGI was 10.8 µM.

Question: And the GI50 [23]?
Answer: Its GI50 is 4.49 µM.

Question: And the TGI [23]?
Answer: The TGI was 41.7 µM.

Question: What about the GI50 [24] of the same compound?
Answer: The GI50 was 3.24 µM.

Question: And the TGI [24]?
Answer: Its TGI is 13.6 µM.

Question: And the GI50 [25]?
Answer: The GI50 was 2.35 µM.

Question: What about the TGI [25] of the same compound?
Answer: The TGI was 7.63 µM.

Question: What about the GI50 [26] of the same compound?
Answer: The GI50 was 4.29 µM.

Question: What about the TGI [26] of the same compound?
Answer: The TGI was 17.9 µM.

Question: And the GI50 [27]?
Answer: Its GI50 is 3.57 µM.

Question: And the TGI [27]?
Answer: Its TGI is 17.8 µM.

Question: What about the GI50 [28] of the same compound?
Answer: Its GI50 is 2.33 µM.

Question: What about the TGI [28] of the same compound?
Answer: The TGI was 7.25 µM.

Question: What about the GI50 [29] of the same compound?
Answer: The GI50 was 3.45 µM.

Question: What about the TGI [29] of the same compound?
Answer: Its TGI is greater than 100 µM.

Question: What about the GI50 [30] of the same compound?
Answer: The GI50 was 2.56 µM.

Question: And the TGI [30]?
Answer: Its TGI is 12.8 µM.

Question: And the GI50 [31]?
Answer: The GI50 was 3.47 µM.

Question: And the TGI [31]?
Answer: The TGI was 14.5 µM.

Question: And the GI50 [32]?
Answer: Its GI50 is 3.19 µM.

Question: And the TGI [32]?
Answer: The TGI was 13.8 µM.

Question: What about the GI50 [33] of the same compound?
Answer: The GI50 was 2.49 µM.

Question: What about the TGI [33] of the same compound?
Answer: The TGI was 8.88 µM.

Question: And the GI50 [34]?
Answer: The GI50 was 14.1 µM.

Question: What about the TGI [34] of the same compound?
Answer: Its TGI is 91.3 µM.

Question: What about the GI50 [35] of the same compound?
Answer: The GI50 was 3.21 µM.

Question: What about the TGI [35] of the same compound?
Answer: Its TGI is 11.7 µM.

Question: And the GI50 [36]?
Answer: Its GI50 is 6.63 µM.

Question: What about the TGI [36] of the same compound?
Answer: The TGI was 40.1 µM.

Question: And the GI50 [37]?
Answer: Its GI50 is 13.6 µM.

Question: And the TGI [37]?
Answer: The TGI was 27.2 µM.

Question: What about the GI50 [38] of the same compound?
Answer: The GI50 was 3.57 µM.

Question: What about the TGI [38] of the same compound?
Answer: Its TGI is 15.3 µM.

Question: What about the GI50 [39] of the same compound?
Answer: Its GI50 is 3.78 µM.

Question: And the TGI [39]?
Answer: Its TGI is 40.9 µM.

Question: What about the GI50 [40] of the same compound?
Answer: Its GI50 is 2.79 µM.

Question: What about the TGI [40] of the same compound?
Answer: The TGI was greater than 100 µM.

Question: What about the GI50 [41] of the same compound?
Answer: Its GI50 is 2.22 µM.

Question: What about the TGI [41] of the same compound?
Answer: Its TGI is 6.36 µM.

Question: What about the GI50 [42] of the same compound?
Answer: Its GI50 is 3.47 µM.

Question: And the TGI [42]?
Answer: Its TGI is 22.9 µM.

Question: What about the GI50 [43] of the same compound?
Answer: Its GI50 is 2.11 µM.

Question: And the TGI [43]?
Answer: Its TGI is 7.21 µM.

Question: What about the GI50 [44] of the same compound?
Answer: The GI50 was 3.21 µM.

Question: What about the TGI [44] of the same compound?
Answer: The TGI was 10.4 µM.

Question: And the GI50 [45]?
Answer: The GI50 was 2.18 µM.

Question: What about the TGI [45] of the same compound?
Answer: Its TGI is 5.03 µM.

Question: And the GI50 [46]?
Answer: Its GI50 is 3.5 µM.

Question: What about the TGI [46] of the same compound?
Answer: The TGI was 13.1 µM.

Question: And the GI50 [47]?
Answer: Its GI50 is 2.24 µM.

Question: And the TGI [47]?
Answer: The TGI was 5.51 µM.

Question: And the GI50 [48]?
Answer: Its GI50 is 5.28 µM.

Question: What about the TGI [48] of the same compound?
Answer: Its TGI is 20.6 µM.

Question: And the GI50 [49]?
Answer: The GI50 was 3.34 µM.

Question: What about the TGI [49] of the same compound?
Answer: The TGI was 13.2 µM.

Question: What about the GI50 [50] of the same compound?
Answer: The GI50 was 3.35 µM.

Question: And the TGI [50]?
Answer: The TGI was 16.4 µM.

Question: What about the GI50 [51] of the same compound?
Answer: Its GI50 is 2.15 µM.

Question: What about the TGI [51] of the same compound?
Answer: The TGI was 19.3 µM.

Question: What about the GI50 [52] of the same compound?
Answer: The GI50 was 7.1 µM.

Question: What about the TGI [52] of the same compound?
Answer: Its TGI is greater than 100 µM.

Question: What about the GI50 [53] of the same compound?
Answer: Its GI50 is 2.57 µM.

Question: And the TGI [53]?
Answer: The TGI was 17 µM.

Question: And the GI50 [54]?
Answer: The GI50 was 3.06 µM.

Question: What about the TGI [54] of the same compound?
Answer: Its TGI is 34.1 µM.

Question: What about the GI50 [55] of the same compound?
Answer: The GI50 was 4.97 µM.

Question: What about the TGI [55] of the same compound?
Answer: Its TGI is 19 µM.

Question: And the GI50 [56]?
Answer: The GI50 was 3.26 µM.

Question: What about the TGI [56] of the same compound?
Answer: Its TGI is 20.4 µM.

Question: And the GI50 [57]?
Answer: Its GI50 is 5.44 µM.

Question: What about the TGI [57] of the same compound?
Answer: Its TGI is 23.1 µM.

Question: What about the GI50 [58] of the same compound?
Answer: The GI50 was 2.33 µM.

Question: What about the TGI [58] of the same compound?
Answer: Its TGI is 6.97 µM.

Question: What about the GI50 [59] of the same compound?
Answer: The GI50 was 4.86 µM.

Question: What about the TGI [59] of the same compound?
Answer: Its TGI is 18.5 µM.
